What all share (type): cell-based, Toxoplasma gondii
The subject of experiment [1] is T. gondii. Put plainly: Parasite replication rate under bradyzoite differentiation conditions (parasites per PV-cyst, IFA). To be noted: 4 days, 100 nM GA. As to the method: FIG. 5 is a graph showing that geldanamycin A (GA) affects bradyzoite replication rate. PK strain (an avirulent derivative of the Me49 strain) and ΔUPRT strain (a strain with a stage-specific selectable marker) parasites were grown under bradyzoite differentiation conditions for 4 days in the presence of 100 nM of GA or DMSO. IFAs were carried out with rabbit anti-T. gondii Hsp90 serum. Fluorescent parasites were counted and the number of parasites per parasitophorous vacuole (PV)-cysts was graphed. One hundred PV-cysts were counted. Student t test was performed by Prism3™ program (Graphpad). *p 0.05, **p 0.01. The y-axis represents the number of parasites/PV-cysts.
RH UPRT knock-out parasites can be induced to differentiate into bradyzoites in low CO2, resulting in pyrimidine starvation. […] Bradyzoite induction under this method was assessed and followed by cyst wall detection using the Dolichos biflorus lectin (Boothroyd et al., (1997) Philos Trans R Soc Lond B Biol Sci 352, 1347-1354). […]
GA (InvivoGen, San Diego, Calif.) was dissolved in dimethyl sulfoxide (DMSO) at […]. […] For replication rate studies, the number of parasites per parasitophorous vacuole or cysts (PV-Cyst) was determined for at least 100 PV-Cyst per treatment (GA or DMSO) in replicate experiments. […] Analysis of intracellular localization of Hsp90 was assessed in the same way but using rabbit anti-TgHsp90 serum. […]

The test system of a further experiment is T. gondii bradyzoites. Put plainly: In vitro transformation of encysted bradyzoites into tachyzoites (P21/SAG1 markers and Hsp90 localization by IFA). How it is done: Released PK bradyzoites from brain cysts of infected mice were incubated with 100 nM GA or DMSO for 2 hours, washed, inoculated onto a confluent HFF monolayers, and grown under tachyzoite conditions. IFAs were performed at 4 and 24 hours post-inoculation. To identify mature bradyzoites, parasites were stained using a monoclonal anti-p21 antibody, and tachyzoites were stained using rabbit anti-SAG1. […] The y-axis depicts the number of parasites per/PV-cysts, and the x-axis depicts time in hours. […] The y-axis depicts the number of parasites per/PV-cysts, and the x-axis depicts time in hours. Parasites with cytoplasmic Hsp90 were treated with GA (Hsp90c-GA) or DMSO (Hsp90c-DMSO); parasites with cytoplasmic and nuclear Hsp90 were treated with GA (Hsp90c,n-GA) or DMSO (Hsp90n,c-DMSO). 100 PV-Cysts were counted at random in three independent experiments.
Cysts were isolated from brains of mice infected intraperitoneally 4 weeks before with PK or Me49 strain tachyzoites. Cysts were purified by isopycnic centrifugation on a percoll gradient and encysted bradyzoites were freed by trypsin digestion. In the case of GA experiments, free bradyzoites were incubated in culture media with GA […] or DMSO for 2 h, then parasites were pelleted and washed. One hundred thousand bradyzoites were inoculated onto 12 mm coverslips covered with a confluent monolayer of HFFs. Intracellular localization of Hsp90 was followed by IFA after 4 and 24 hours of infection using anti-Hsp90 serum (1:100). Monoclonal antibodies, specific to the tachyzoite surface protein SAG1 or to the bradyzoite specific protein P21 (mAb T84G10), were used to monitor stage conversion.
GA (InvivoGen, San Diego, Calif.) was dissolved in dimethyl sulfoxide (DMSO) at […]. The drug was diluted in normal culture media to the required concentrations prior to use. A range of concentrations from 1 nM to 5 μM were initially assayed to determine an effective concentration for subsequent experiments. DMSO was added in similar concentrations to control slides. For replication rate studies, the number of parasites per parasitophorous vacuole or cysts (PV-Cyst) was determined for at least 100 PV-Cyst per treatment (GA or DMSO) in replicate experiments. To measure the effect of GA on stage conversion, GA was added in bradyzoite induction experiments (as described above), slides were analyzed by IFA, and the number of P34 positive vacuoles was determined in both GA and DMSO treated cultures. Analysis of intracellular localization of Hsp90 was assessed in the same way but using rabbit anti-TgHsp90 serum. In the in vitro transformation of encysted bradyzoites into tachyzoites experiments, parasites were treated with GA (as described above) and then analyzed by IFA counting P21 and […] positive PV-Cysts in treated and control groups. For replication rate studies, the number of parasites per PV/cysts was determined for at least 100 PV-Cyst per treatment in replicate experiments.

The test system of experiment [2] is T. gondii. Put plainly: Tachyzoite to bradyzoite conversion (P34 marker and Hsp90 subcellular localization by IFA). To be noted: RH ΔUPRT strain, bradyzoite conditions 4 days, 100 nM GA. How it is done: FIG. 6 is two graphs showing that GA blocks tachyzoite to bradyzoite conversion. Parasites were grown under bradyzoite differentiation conditions for 4 days in the presence of 100 nM of GA or DMSO. FIG. 6A is RH UPRT knock-out parasites, and FIG. 6B is PK parasites. The y-axes depict the number of parasites/PV cysts. Cytoplasmic (c) and nuclear (n) Hsp90 localization was determined by IFA with rabbit anti-T. gondii Hsp90 serum. Parasites were also stained with the bradyzoite-specific marker p34 and scored as P34 positive (p34+) or negative (p34−). The number of P34−/Hsp90c; P34−/Hsp90c,n; P34+/Hsp90c; and P34+/Hsp90c,n per 100 PV-Cysts was counted at random, in three independent experiments.
RH UPRT knock-out parasites can be induced to differentiate into bradyzoites in low CO2, resulting in pyrimidine starvation. (Bohne et al., (eds) (1997) Stage-specific expression of a selectable marker in T. gondii permits selective inhibition of either tachyzoites or bradyzoites Vol. 88. Mol Biochem Parasitol; Bohne et al., (1997) Mol Biochem Parasitol 88, 115-126). […] Bradyzoite induction under this method was assessed and followed by cyst wall detection using the Dolichos biflorus lectin (Boothroyd et al., (1997) Philos Trans R Soc Lond B Biol Sci 352, 1347-1354). […]

The mark [3] stands for this setting: 24 hours, Me49 bradyzoites incubated 2 hours with GA, washed, tachyzoite conditions.
Where [4] appears, read: GA treated bradyzoites, time point not stated.

Molecules are shown by their SMILES.

As for `COC1=C2C[C@@H](C)C[C@H](OC)[C@H](O)[C@@H](C)/C=C(\C)[C@H](OC(N)=O)[C@@H](OC)/C=C\C=C(/C)C(=O)NC(=CC1=O)C2=O` [GA, geldanamycin A], the “reduction of parasite growth compared to DMSO controls” value in the experiment on T. gondii [1] (PK strain) is given as about 3 fold. For the same molecule, the “reduction of parasite growth compared to DMSO controls” value with T. gondii [1] (RH strain) is listed as about 2 fold. For the same molecule, the “P21 positive and SAG1 negative parasites” value in the experiment on T. gondii bradyzoites (4 hours post-infection, all parasites (GA and DMSO), Me49 bradyzoites incubated 2 hours) is “more than 90%”. The “parasites exhibiting Hsp90c” value in the experiment on T. gondii bradyzoites (24 hours post-infection) turned out to be 100%. Also, in the experiment on T. gondii bradyzoites (setting [3]), the SAG1 positive parasites entry is listed as “less than 5%” and the “parasites remaining P21 positive” value is on record as “more than 90%”. In addition, in the experiment on T. gondii bradyzoites (setting [4]), the “bradyzoites showing Hsp90c staining” value is listed as 80% and the “bradyzoites showing Hsp90n,c staining pattern” value was found to be 20%. In the experiment with T. gondii bradyzoites (bradyzoites treated with GA), the “reduction of level of invasion compared with DMSO treated parasites” value is recorded as 40-66%. Also, the “parasite vacuoles showing P34- and Hsp90c (tachyzoite phenotype)” value with T. gondii [2] was “about 75%”.

The record behind these values is patent US7968096B2, “Methods and compositions for treating toxoplasma” (priority 2005, dated 2011).
